Legend:
[1] = tested on: F-ds26-T (DNA, duplex) CAATCGGATCGAATTCGATCCGATTG; experiment: FRET melting; conditions: 10 mM K+, 90 mM Li+; 10 mM lithium cacodylate, pH 7.2; 5 µM compound, 0.2 µM DNA
[2] = tested on: F-21-T (DNA, G4) GGGTTAGGGTTAGGGTTAGGG; experiment: FRET melting; conditions: 10 mM K+, 90 mM Li+; 10 mM lithium cacodylate, pH 7.2; 5 µM compound, 0.2 µM DNA
[3] = tested on: F-SA5-T (DNA, G4) GGAAGGAGGGGTGACAGGG; experiment: FRET melting; conditions: 10 mM K+, 90 mM Li+; 10 mM lithium cacodylate, pH 7.2; 5 µM compound, 0.2 µM DNA
[4] = tested on: F-mit9438-T (DNA, G4) GGCGTAGGTTTGGTCTAGGG; experiment: FRET melting; conditions: 10 mM K+, 90 mM Li+; 10 mM lithium cacodylate, pH 7.2; 5 µM compound, 0.2 µM DNA
[5] = tested on: ds26 (DNA, duplex) CAATCGGATCGAATTCGATCCGATTG; experiment: UV/Vis titration; conditions: 100 mM K+, 10 mM lithium cacodylate, pH 7.2, independent-and-equivalent-sites model
[6] = tested on: EBR1 (DNA, G4) GGGCAGGGGGTGATGGGGAGGAGCCAGGG; experiment: UV/Vis titration; design: unit not given here; conditions: 100 mM K+, 10 mM lithium cacodylate, pH 7.2, independent-and-equivalent-sites model
[7] = tested on: SA5 (DNA, G4) GGAAGGAGGGGTGACAGGG; experiment: UV/Vis titration; design: unit not given here; conditions: 100 mM K+, 10 mM lithium cacodylate, pH 7.2, independent-and-equivalent-sites model
[8] = tested on: F-SA3-T (DNA, G4) GGGGCTAATTGGGGCTGGTGG; experiment: FRET melting; conditions: 10 mM K+, 90 mM Li+; 10 mM lithium cacodylate, pH 7.2; 5 µM compound, 0.2 µM DNA
[9] = tested on: mit9438 (DNA, G4) GGCGTAGGTTTGGTCTAGGG; experiment: UV/Vis titration; design: unit not given here; conditions: 100 mM K+, 10 mM lithium cacodylate, pH 7.2, independent-and-equivalent-sites model
[10] = tested on: F-mit6363-T (DNA, G4) AGGGACGCGGGCGGGGGATATAGGGT; experiment: FRET melting; conditions: 10 mM K+, 90 mM Li+; 10 mM lithium cacodylate, pH 7.2; 5 µM compound, 0.2 µM DNA
[11] = tested on: F-EBR1-T (DNA, G4) GGGCAGGGGGTGATGGGGAGGAGCCAGGG; experiment: FRET melting; conditions: 10 mM K+, 90 mM Li+; 10 mM lithium cacodylate, pH 7.2; 5 µM compound, 0.2 µM DNA

Structure (SMILES)	ΔTm [1] [°C]	Ka ([5]; 7 µM ligand) [µM⁻¹]	Ka ([6]; 7 µM ligand)	Ka ([7]; 7 µM ligand)	Ka ([9]; 7 µM ligand)	also measured
NCCOc1cc(C(=O)Nc2cc(OCCN)c3ccccc3n2)nc(C(=O)Nc2cc(OCCN)c3ccccc3n2)c1	0.7 ± 0.6	–	–	–	–	ΔTm [2]: 24.0 ± 1.1 °C
C[n+]1ccc(-c2c3nc(c(-c4cc[n+](C)cc4)c4ccc([nH]4)c(-c4cc[n+](C)cc4)c4nc(c(-c5cc[n+](C)cc5)c5ccc2[nH]5)C=C4)C=C3)cc1	–	–	–	–	–	ΔTm [3]: 29.0 ± 2.1 °C; ΔTm [4]: 31.0 ± 0.0 °C
C[N+](C)(C)c1ccc(/C=C/c2cc(/C=C/c3ccc([N+](C)(C)C)cc3)cc(/C=C/c3ccc([N+](C)(C)C)cc3)c2)cc1	–	–	–	–	–	Ka ([5]; 4 µM ligand): 0.083 µM⁻¹; Ka ([6]; 4 µM ligand): 0.672; Ka ([7]; 4 µM ligand): 0.651; ΔTm [8]: 31.3 ± 0.6 °C; Ka ([9]; 4 µM ligand): 0.821
CCCNc1cc2c3c(ccc4c3c1C(=O)N(CCCN(C)C)C4=O)C(=O)N(CCCN(C)C)C2=O	–	–	–	–	–	ΔTm [3]: 4.7 ± 1.0 °C

Further lines, with some results ahead:

ΔTm [1] [°C]	Ka ([5]; 7 µM ligand) [µM⁻¹]	Ka ([6]; 7 µM ligand)	Ka ([7]; 7 µM ligand)	Ka ([9]; 7 µM ligand)	Structure (SMILES)	also measured
9.0 ± 1.0	0.267	0.367	0.513	1.548	C[n+]1ccc(/C=C/c2cc(/C=C/c3cc[n+](C)cc3)c(/C=C/c3cc[n+](C)cc3)cc2/C=C/c2cc[n+](C)cc2)cc1	ΔTm [2]: 34.7 ± 0.0 °C; ΔTm [10]: 33.0 ± 0.0 °C; ΔTm [11]: 35.3 ± 0.6 °C
-4.7 ± 0.6	0.562	0.801	1.065	1.420	C[N+](C)(C)c1ccc(/C=C/c2cc(/C=C/c3ccc([N+](C)(C)C)cc3)c(/C=C/c3ccc([N+](C)(C)C)cc3)cc2/C=C/c2ccc([N+](C)(C)C)cc2)cc1	ΔTm [8]: 9.7 ± 0.6 °C
–	0.165	0.528	1.411	1.167	C[n+]1ccc(/C=C/c2cc(/C=C/c3cc[n+](C)cc3)cc(/C=C/c3cc[n+](C)cc3)c2)cc1	–
